Experimental data taken from PubChem BioAssay AID330 (DTP/NCI, 2004).
Values joined by “and” are separate entries in the source; they are usually repeats but may differ in a detail not shown here. Equal values may be shown once. Toxic doses and inconclusive results are not listed.

Tested on: P388 leukemia ip, CD2F1 mice, survival T/C
Experiment: NCI In Vivo Anticancer Drug Screen. Data for tumor model P388 Leukemia (intraperitoneal) in CD2F1 (CDF1) mice
Details: endpoint: median survival time, higher = longer survival
Outline: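 Mice carrying the transplanted tumor received test compound or vehicle. Survival was recorded in each group, and the value is the treated-group measurement divided by that of the vehicle-treated control group.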

[1] = dose: 50.0 mg/kg/injection, schedule: Q01DX005 (ip), vehicle: Klucel (hydroxypropylcellulose) (HPC)
[2] = dose: 50.0 mg/kg/injection, schedule: Q01DX005 (ip), vehicle: saline with Tween-80
[3] = dose: 100.0 mg/kg/injection, schedule: Q01DX005 (ip), vehicle: saline with Tween-80
[4] = dose: 200.0 mg/kg/injection, schedule: Q01DX005 (ip), vehicle: saline with Tween-80
[5] = dose: 12.5 mg/kg/injection, schedule: Q01DX009 (ip), vehicle: distilled water + Tween-80
[6] = dose: 25.0 mg/kg/injection, schedule: Q01DX009 (ip), vehicle: distilled water + Tween-80
[7] = dose: 50.0 mg/kg/injection, schedule: Q01DX009 (ip), vehicle: distilled water + Tween-80

SMILES: Cc1cn(CCCCCCOc2c3occc3cc3ccc(=O)oc23)c(=O)[nH]c1=O
- T/C [1]: 92 % of control
- T/C (dose: 50.0 mg/kg/injection, schedule: Q04DX002 (ip), vehicle: Klucel (hydroxypropylcellulose) (HPC)): 98 % of control
- T/C (dose: 100.0 mg/kg/injection, schedule: Q04DX002 (ip), vehicle: Klucel (hydroxypropylcellulose) (HPC)): 104 % of control
- T/C (dose: 200.0 mg/kg/injection, schedule: Q01DX005 (ip), vehicle: Klucel (hydroxypropylcellulose) (HPC)): 88 % of control
- T/C (dose: 200.0 mg/kg/injection, schedule: Q04DX002 (ip), vehicle: Klucel (hydroxypropylcellulose) (HPC)): 96 % of control

SMILES: Cc1c([N+](=O)[O-])c(=O)[nH]n1C
- T/C (dose: 50.0 mg/kg/injection, schedule: Q01DX009 (ip), vehicle: saline with Tween-80): 96 % of control
- T/C (dose: 100.0 mg/kg/injection, schedule: Q01DX009 (ip), vehicle: saline with Tween-80): 88 % of control
- T/C (dose: 200.0 mg/kg/injection, schedule: Q01DX009 (ip), vehicle: saline with Tween-80): 89 % of control

SMILES: O=C1OC(c2ccccc2)(c2ccc(Cl)cc2)CC1/C=C(\c1ccccc1)c1ccc(Cl)cc1 (stereo not given)
- T/C [2]: 96 % of control
- T/C [3]: 90 % of control
- T/C [4]: 91 % of control

SMILES: CC(=O)c1c(CO[N+](=O)[O-])n([O-])c2ccccc2[n+]1=O
- T/C (dose: 60.0 mg/kg/injection, schedule: Q01DX005 (ip), vehicle: saline with Tween-80): 106 % of control
- T/C (dose: 120.0 mg/kg/injection, schedule: Q01DX005 (ip), vehicle: saline with Tween-80): 104 % of control

SMILES: CCOC(=O)c1cc(-c2ccccc2)c(=O)c(OC)nc1-c1ccccc1
- T/C (dose: 25.0 mg/kg/injection, schedule: Q01DX005 (ip), vehicle: saline with Tween-80): 108 % of control
- T/C [2]: 118 % of control

SMILES: O=C1CC(O)C(Cc2ccccc2)N1 (stereo not given)
- T/C [2]: 97 % of control
- T/C [3]: 98 % of control
- T/C [4]: 97 % of control

SMILES: CC1OC(O[C@H]2CC[C@]3(C=O)[C@H]4CC[C@]5(C)[C@@H](C6=COC(=O)C6)CC[C@]5(O)[C@@H]4CC[C@]3(O)C2)C(O)C(O)C1OC1OC(CO)C(O)C(O)C1O (stereo not given in full)
- T/C (dose: 25.0 mg/kg/injection, schedule: Q01DX005 (ip), vehicle: Klucel (hydroxypropylcellulose) (HPC)): 101 % of control
- T/C [1]: 98 % of control

SMILES: CN(C)C1CCCCC1[N+](C)(C)C (stereo not given)
- T/C (dose: 5.0 mg/kg/injection, schedule: Q01DX009 (ip), vehicle: saline sonified): 100 % of control
- T/C (dose: 10.0 mg/kg/injection, schedule: Q01DX009 (ip), vehicle: saline sonified): 95 % of control
- T/C (dose: 20.0 mg/kg/injection, schedule: Q01DX009 (ip), vehicle: saline sonified): 90 % of control

SMILES: CNC(=O)OCc1c(-c2ccccc2)c(-c2ccccc2)n(C)c1COC(=O)NC
- T/C (dose: 1.56 mg/kg/injection, schedule: Q01DX009 (ip), vehicle: distilled water + Tween-80): 102 % of control
- T/C [5]: 154 % of control and 164 % of control
- T/C [6]: 160 % of control and 174 % of control
- T/C [7]: 165 % of control and 171 % of control

SMILES: COc1ccc(C2C(C#N)=C(c3ccccc3)OC(OC)(OC)C2(OC)OC)cc1 (stereo not given)
- T/C (dose: 60.0 mg/kg/injection, schedule: Q01DX005 (ip), vehicle: Klucel (hydroxypropylcellulose) (HPC)): 102 % of control
- T/C (dose: 120.0 mg/kg/injection, schedule: Q01DX005 (ip), vehicle: Klucel (hydroxypropylcellulose) (HPC)): 102 % of control
- T/C (dose: 240.0 mg/kg/injection, schedule: Q01DX005 (ip), vehicle: Klucel (hydroxypropylcellulose) (HPC)): 99 % of control

SMILES: O=C(CC(O)(C(F)(F)F)C(F)(F)F)c1ccc(Cl)cc1
- T/C (dose: 50.0 mg/kg/injection, schedule: Q04DX003 (ip), vehicle: saline with Tween-80): 104 % of control
- T/C (dose: 100.0 mg/kg/injection, schedule: Q04DX003 (ip), vehicle: saline with Tween-80): 100 % of control
- T/C (dose: 200.0 mg/kg/injection, schedule: Q04DX003 (ip), vehicle: saline with Tween-80): 104 % of control

SMILES: O=P(c1ccccc1)(c1ccccc1)c1ccccc1.[CH3][Sn]([Cl])([Cl])[c]1ccccc1
- T/C (dose: 12.5 mg/kg/injection, schedule: Q04DX003 (ip), vehicle: saline): 100 % of control and 118 % of control
- T/C (dose: 25.0 mg/kg/injection, schedule: Q04DX003 (ip), vehicle: saline): 100 % of control and 104 % of control
- T/C (dose: 50.0 mg/kg/injection, schedule: Q04DX003 (ip), vehicle: saline): 100 % of control and 101 % of control
- T/C (dose: 100.0 mg/kg/injection, schedule: Q04DX003 (ip), vehicle: saline): 100 % of control and 110 % of control

SMILES: CCOc1cc2c3c(c(C)cc2cn1)CCC3=O
- T/C (dose: 6.25 mg/kg/injection, schedule: Q01DX009 (ip), vehicle: distilled water + Tween-80): 96 % of control
- T/C [5]: 100 % of control
- T/C [6]: 114 % of control
- T/C [7]: 98 % of control and 96 % of control
- T/C (dose: 100.0 mg/kg/injection, schedule: Q01DX009 (ip), vehicle: distilled water + Tween-80): 115 % of control and 87 % of control
- T/C (dose: 200.0 mg/kg/injection, schedule: Q01DX009 (ip), vehicle: distilled water + Tween-80): 118 % of control

SMILES: CCCCOc1ncnc2nc[nH]c12
- T/C [1]: 103 % of control
- T/C (dose: 100.0 mg/kg/injection, schedule: Q01DX005 (ip), vehicle: Klucel (hydroxypropylcellulose) (HPC)): 103 % of control
